From patent publication US20050043262A1, “Novel specific inhibitor of the cyclin kinase inhibitor p21Waf1/Cip1 and methods of using the inhibitor” (priority 2000, published 2005) come the findings set out here.

The test system of one data set is caspase-3. Put plainly: Caspase-3 activity (CaspACE colorimetric assay) in MCF-7 cells. It counts as cell-based, human. Conditions: MCF-7 cells (lack caspase-3). The procedure:
Caspase-3 Activity: The CaspACE Assay System was used to measure the activity of caspase-3. After incubation under appropriate conditions, the cells were lysed in CaspACE lysis buffer, and protein concentration was determined by dye reagent protein assay (Bio-Rad, Hercules, Calif.). […] The lysates with equal protein amounts were incubated with DEVD-p-nitroaniline substrate for 4 hours at 37° C. The reaction products were detected at 405 nm using a PowerWave X automated plate reader (Bio-Tek Instruments).
As another confirmatory test for antisense p21 ODN-mediated apoptosis, caspase-3 activation was assessed. Members of the caspase family of proteases are essential components of an evolutionarily conserved cell death pathway in multicellular eukaryotes and play key roles in inflammation and apoptosis in mammalian cells. Caspase-3 has substrate specificity for the amino acid sequence DEVD (Asp-Glu-Val-Asp) and is inhibited by the tetrapeptide inhibitor Ac-DEVD-CHO; its catalytic activity was assessed colorimetrically using the labeled Ac-DEVD-pNA substrate. […] T47D cells were grown to confluence, serum starved for 24 hours, and lipofected with antisense p21 or control ODN at the concentrations indicated. Caspase-3 activity was assessed as described in “Capase-3 Activity” using a colorimetric method. […]

Data set [1] concerns A10 VSM cells. In words: [3H]thymidine incorporation (DNA synthesis) in A10 VSM cells. Type of data set: cell-based, rat. Background: Dividing cells build labelled thymidine or BrdU into new DNA.
The next data set relates to bovine VSM cells. In words: PDGF-BB-stimulated DNA synthesis in bovine VSM cells. Type of data set: cell-based. Conditions: bovine VSM cell line, various concentrations. The text has this:
(§1) Cell culture, DNA synthesis, and proliferation assays: Cultures of both A10 and A7r5 rat aortic VSM cells were obtained from American Type Culture Collection (Rockville Md.). Bovine aortic smooth muscle cells were supplied by Martha O'Donnell (O'Donnell and Owen, 1986 Proc Natl. Acad. Sci.US.A., 83, p. 6132-6136). All of the cell lines were maintained as described (Weiss et al., 1998 Am. J. Physiol., 274, p. C1521-C1529) and were used between passages 15 and 25. The cells were growth-arrested by placing them in serum-free quiescence medium, exposed to growth factors as indicated, and [^3H]thymidine incorporation assessed as previously described (Weiss and Nuccitelli, 1992a J. Biol. Chem., 267, p. 5608-5613). Cell proliferation was assessed by counting of adherent cells on 4 representative fields under 100× magnification in each of 3 wells per experimental condition.
(§2) Antisense techniques were employed to examine the dependence of G1-phase progression on p21^Waf1/Cip1 in the VSM cell lines (Crooke, 1993 Antisense research and applications. Boca Raton, CRC.). […] DNA synthesis was assessed by [^3H]-thymidine incorporation and is expressed as mean ± s.e.m. of three wells per data point. […] After 18 hours of PDGF incubation, the cells were counted by examining representative fields at 100× magnification. The average number of cells in 4 random fields in each well was determined.

For data set [2], the system named is A10 VSM cells. In words: Cell proliferation by counting adherent cells. It counts as cell-based, rat. Conditions: after 18 hours of PDGF incubation.
Excerpt: as §1, §2

The subject of a further data set is p21^Waf1/Cip1. In words: PMA-induced p21 level by Western blot in A431 cells. It counts as cell-based, human. Conditions: 200 nM oligodeoxynucleotide, PMA 100 ng/ml up to 6 hours. The procedure: Western blots: Cells were grown to confluence in 6 cm culture dishes and serum deprived. After transfection and or treatment with appropriate agonist, the cells were washed with phosphate-buffered saline and lysed in lysis buffer and the supernatant was Western blotted as described (Weiss and Nuccitelli, 1992 J. Biol. Chem., 267, p. 5608-5613).
PMA is a potent inducer of p21^Waf1/Cip1 in a variety of different cell lines (Huang et al., 1995 Proc. Natl. Acad. Sci. US.A., 92, p. 4793-4797; Michieli et al., 1994 Cancer Res., 54, p. 3391-3395) and was employed to examine p21^Waf1/Cip1 levels after antisense transfection and confirm efficacy of translation to attenuate p21^Waf1/Cip1 levels. A431 cells were transfected with 200 nM antisense p21^Waf1/Cip1 (SEQ. ID NO.:1) or sense p21^Waf1/Cip1 oligodeoxynucleotide (SEQ. ID NO.:2). After overnight incubation in serum-free medium, the cells were stimulated with PMA (100 ng/ml) for the times indicated, lysed, and the lysates were Western blotted with p21^Waf1/Cip1 or α-actin antibody.
(In general: In western blotting, separated proteins are transferred to a membrane and probed.)

For “5′-ATC-CCC-AGC-CGG-TTC-TGA-CAT-3′ (antisense ATCCCCAGCCGGTTCTGACAT; listed as DNA, chemistry not fully specified) [antisense p21 ODN]”, the “caspase-3 cleavage (activity)” value in the data set on caspase-3 is “did not show significant caspase-3 cleavage products”.

Regarding 5′-GACATCACCAGGATCGGACAT-3′, the “PDGF-stimulated DNA synthesis” value with A10 VSM cells [1] (A10 VSM cells, 200 nM oligodeoxynucleotide lipofected, PDGF-BB 30 ng/ml 18 hours) is reported as “Significant inhibition”; in the data set with bovine VSM cells, “a similar effect”. The “DNA synthesis relative to control oligodeoxynucleotide” value in the data set on A10 VSM cells [1] (A10 VSM cells, 10% serum) is listed as “markedly inhibited”. For the same substance, the “PDGF-stimulated DNA synthesis, dose/response” value in the data set on A10 VSM cells [1] (A10 VSM cells, increasing oligodeoxynucleotide concentration up to 200 nM) was “inhibition of DNA synthesis with increasing concentration”. Besides, the “effects of irradiation on cell cycle arrest (DNA synthesis)” value with A10 VSM cells [1] (VSM cells, 1 to 12 Gy, maximum potentiation at 8 Gy) is “potentiated at higher doses of radiation”. For the same substance, in the data set with A10 VSM cells [1] (VSM cells, 12 Gy), the “potentiation of irradiation effect at 12 Gy” value is given as “did not reach statistical significance”. Further, the “potentiation of Adriamycin growth inhibition” value in the data set on A10 VSM cells [1] (VSM cells, 1000 to 2000 ng/ml Adriamycin) is “significant potentiation”. Moreover, in the data set with A10 VSM cells [1] (VSM cells, similar oligodeoxynucleotide concentrations (FIG. 9d)), the “cell growth (DNA synthesis) stimulated with PDGF-BB and serum” value is recorded as “inhibited”. Further, the “DNA synthesis in non-irradiated cells” value in the data set with A10 VSM cells [1] (confluent VSM cells in serum-containing medium) is on record as “marked inhibition”. Besides, the entries for the “cell number / cell proliferation” value in the data set on A10 VSM cells [2] and with A10 VSM cells [2] (listed as antisense p21^Waf1/Cip1 oligodeoxynucleotide) were “parallel the alterations in DNA synthesis” and “inhibited”, respectively. Also, in the data set with p21^Waf1/Cip1, the “PMA-induced p21^Waf1/Cip1 levels” value is on record as “significant attenuation”.
